# From BindingDB's records for doi:10.1021/cb5001586 (The Broad Institute , Cambridge, Massachusetts 02142, …, 2014)
# Target: Acyl-homoserine lactone acylase PvdQ [A190E,F674L] (Pseudomonas aeruginosa, UniProt Q9I194, A190E/F674L)
# Test: PvdQ IC50 Assay
# Procedure: The assay was performed with nine compound concentrations that ranged from 3 nM to 19.5 µM with PvdQ concentration of 20 nM. The positive control, isopropyl dodecylfluorophosphonate (IDFP), was added in 24 selective wells to a final concentration of 200 µM. The assay plates were initially read at time = 0 and then incubated for 60 min at RT. The plates were read again at time = 60 min.
# Sequence of Acyl-homoserine lactone acylase PvdQ [A190E,F674L] (Q9I194 whole entry, looked up, stated change not applied): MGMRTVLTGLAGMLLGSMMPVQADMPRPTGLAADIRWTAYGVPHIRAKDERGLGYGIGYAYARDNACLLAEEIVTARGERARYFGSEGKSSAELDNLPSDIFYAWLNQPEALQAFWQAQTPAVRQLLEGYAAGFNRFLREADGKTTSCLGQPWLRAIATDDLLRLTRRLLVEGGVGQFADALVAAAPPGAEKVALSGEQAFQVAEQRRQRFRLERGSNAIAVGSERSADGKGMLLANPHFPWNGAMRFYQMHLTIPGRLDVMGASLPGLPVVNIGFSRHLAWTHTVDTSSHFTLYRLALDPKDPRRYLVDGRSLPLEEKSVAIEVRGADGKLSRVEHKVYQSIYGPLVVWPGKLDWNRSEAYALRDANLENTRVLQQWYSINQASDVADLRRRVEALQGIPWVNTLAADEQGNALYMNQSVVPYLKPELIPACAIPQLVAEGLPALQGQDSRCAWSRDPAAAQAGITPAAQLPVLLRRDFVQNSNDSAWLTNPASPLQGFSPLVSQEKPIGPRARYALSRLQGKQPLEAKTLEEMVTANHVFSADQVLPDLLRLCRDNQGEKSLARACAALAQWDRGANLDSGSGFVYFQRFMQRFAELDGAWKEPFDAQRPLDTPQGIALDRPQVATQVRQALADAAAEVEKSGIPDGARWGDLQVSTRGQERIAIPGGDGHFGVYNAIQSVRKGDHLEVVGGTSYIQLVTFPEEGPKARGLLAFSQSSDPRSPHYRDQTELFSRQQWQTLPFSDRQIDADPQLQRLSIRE
row,SMILES,IC50 [nM]
1,"N#Cc1ccc(C(C#N)c2ccc(Cl)cc2Cl)nc1 (stereo not given) [6-(Cyano(2,4-dichlorophenyl)methyl)nicotinonitrile (34)]",1800
2,N#CC(c1ccc(C(F)(F)F)cc1)c1cccc(C(F)(F)F)n1 (stereo not given) [2-(4-(Trifluoromethyl)phenyl)-2-(6-(trifluoromethyl)pyridin-2-yl)acetonitrile (29)],140
3,CCCCC(c1ccc(Cl)cc1)c1nnn[nH]1 (stereo not given) [5-(1-(4-Chlorophenyl)pentyl)-1H-tetrazole (53)],6700
4,N#CC(c1ccc(Cl)cc1)c1ccc(C(F)(F)F)c(Cl)n1 (stereo not given) [2-(6-Chloro-5-(trifluoromethyl)pyridin-2-yl)-2-(4-chlorophenyl)acetonitrile (21)],620
5,N#CC(c1ccc(Cl)cc1)c1ccccn1 (stereo not given) [2-(4-Chlorophenyl)-2-(pyridin-2-yl)acetonitrile (24)],270
6,N#CC(c1cccc(Cl)n1)c1ccc(Cl)cc1F (stereo not given) [2-(4-Chloro-2-fluorophenyl)-2-(6-chloropyridin-2-yl) acetonitrile (13)],60
7,COCCOCCC(C#N)c1ccc(Cl)cc1 (stereo not given) [2-(4-Chlorophenyl)-4-(2-methoxyethoxy)butanenitrile (42)],4700
8,N#Cc1cccc(C(C#N)c2ccc(F)cc2)n1 (stereo not given) [6-(Cyano(4-fluorophenyl)methyl)picolinonitrile (25)],130
9,Cc1ccc(C(C#N)c2ccc(Cl)cc2)nc1C#N (stereo not given) [6-((4-Chlorophenyl)(cyano)methyl)-3-methyl picolinonitrile (22)],180
10,N#CC(c1ccc(F)cc1)c1cccc(C(F)(F)F)n1 (stereo not given) [2-(4-Fluorophenyl)-2-(6-(trifluoromethyl)pyridin-2-yl) acetonitrile (4)],20
11,CC(C)CC(C#N)c1ccc(Cl)cc1 (stereo not given) [2-(4-Chlorophenyl)-4-methylpentanenitrile (39)],290
12,N#CC(CC1CC1)c1ccc(Cl)cc1 (stereo not given) [2-(4-Chlorophenyl)-3-cyclopropylpropanenitrile (40)],540
13,N#CC(c1cccc(Cl)n1)c1ccccc1OC(F)(F)F (stereo not given) [2-(6-Chloropyridin-2-yl)-2-(2-(trifluoromethoxy)-phenyl)acetonitrile (11)],1700
14,CCCCC(C#N)c1ccc(C(F)(F)F)cc1 (stereo not given) [2-(4-(Trifluoromethyl)phenyl)hexanenitrile (48)],> 10000
15,CCCCC(C#N)c1ccccn1 (stereo not given) [2-(Pyridin-2-yl)hexanenitrile (51)],8400
16,"N#CC(c1ccc(Cl)cc1Cl)c1ncccc1Cl (stereo not given) [2-(3-Chloropyridin-2-yl)-2-(2,4-dichlorophenyl) acetonitrile (35)]",210
17,N#CC(c1ccc(Cl)cc1)c1ccc(Cl)cn1 (stereo not given) [2-(4-Chlorophenyl)-2-(5-chloropyridin-2-yl) acetonitrile (14)],130
18,Clc1ccc(C(c2cccc(Cl)n2)c2nnn[nH]2)cc1 (stereo not given) [2-Chloro-6-((4-chlorophenyl)(1H-tetrazol-5-yl)-methyl)pyridine (52)],3400
19,COCCC(C#N)c1ccc(Cl)cc1 (stereo not given) [2-(4-Chlorophenyl)-4-methoxybutanenitrile (41)],4800
20,N#CC(c1ccc(F)cc1)c1ccc(C(F)(F)F)c(Cl)n1 (stereo not given) [2-(6-Chloro-5-(trifluoromethyl)pyridin-2-yl)-2-(4-fluorophenyl)acetonitrile (27)],740

row,SMILES,IC50 [nM]
1,N#CC(c1ccc(Cl)cc1)c1ncccc1Cl (stereo not given) [2-(4-Chlorophenyl)-2-(3-chloropyridin-2-yl) acetonitrile (15)],10
2,N#CC(c1ccc(Cl)cc1)c1cccc(C(F)(F)F)n1 (stereo not given) [2-(4-Chlorophenyl)-2-(6-(trifluoromethyl)pyridin-2-yl)acetonitrile (16)],10
3,CCCCC(C#N)c1ccc(F)cc1 (stereo not given) [2-(4-Fluorophenyl)hexanenitrile (46)],320
4,"N#CC(c1ccc(C(F)(F)F)c(Cl)n1)c1ccc(Cl)cc1Cl (stereo not given) [2-(6-Chloro-5-(trifluoromethyl)pyridin-2-yl)-2-(2,4-dichlorophenyl)acetonitrile (36)]",970
5,CCCCC(C#N)c1ccc(Cl)cc1 (stereo not given) [2-(4-Chlorophenyl)hexanenitrile (38)],1400
6,CCCC(C#N)c1ccc(Cl)cc1 (stereo not given) [2-(4-Chlorophenyl)pentanenitrile (37)],5900
7,"N#CC(c1cccc(Cl)n1)c1ccc(Cl)cc1Cl (stereo not given) [2-(6-Chloropyridin-2-yl)-2-(2,4-dichlorophenyl) acetonitrile (12)]",250
8,"N#Cc1cccc(C(C#N)c2ccc(Cl)cc2Cl)n1 (stereo not given) [6-(Cyano(2,4-dichlorophenyl)methyl)picolinonitrile (33)]",290
9,"N#CC1c2ccc(Cl)cc2CCc2cccnc21 (stereo not given) [8-Chloro-6,11-dihydro-5H-benzo[5,6]cyclohepta[1,2-b]pyridine-11-carbonitrile (55)]",9100
10,N#Cc1cccc(C(C#N)c2ccc(Cl)cc2)n1 (stereo not given) [6-((4-Chlorophenyl)(cyano)methyl)picolinonitrile (17)],180
11,N#Cc1ccc(C(C#N)c2ccc(Cl)cc2)nc1 (stereo not given) [6-((4-Chlorophenyl)(cyano)methyl)nicotinonitrile (23)],2500
12,N#CC(c1ccc(C(F)(F)F)c(Cl)n1)c1ccc(Cl)cc1F (stereo not given) [2-(4-Chloro-2-fluorophenyl)-2-(6-chloro-5-(trifluoro-methyl)pyridin-2-yl)acetonitrile (32)],630
13,N#CC(c1ccc(C(F)(F)F)cc1)c1ccc(C(F)(F)F)c(Cl)n1 (stereo not given) [2-(6-Chloro-5-(trifluoromethyl)pyridin-2-yl)-2-(4-(trifluoromethyl)phenyl)acetonitrile (28)],2300
14,N#CC(c1ccc(Cl)cc1)c1ccc(C(F)(F)F)cn1 (stereo not given) [2-(4-Chlorophenyl)-2-(5-(trifluoromethyl)pyridin-2-yl)acetonitrile (20)],2400
15,N#CC(c1ccc(C(F)(F)F)cc1)c1cccc(Cl)n1 (stereo not given) [2-(6-Chloropyridin-2-yl)-2-(4-(trifluoromethyl)phenyl)acetonitrile (10)],390
16,CC(C#N)(c1ccc(Cl)cc1)c1ccc(C(F)(F)F)cn1 (stereo not given) [2-(4-Chlorophenyl)-2-(5-(trifluoromethyl)pyridin-2-yl)propanenitrile (54)],1100
17,COCCC(C#N)c1ccc(F)cc1 (stereo not given) [2-(4-Fluorophenyl)-4-methoxybutanenitrile (47)],290
18,N#CC(c1ccc(C(F)(F)F)cn1)c1ccc(Cl)cc1F (stereo not given) [2-(4-Chloro-2-fluorophenyl)-2-(5-(trifluoromethyl)-pyridin-2-yl)acetonitrile (31)],10
19,CCCCC(C#N)c1ccc(Cl)cn1 (stereo not given) [2-(5-Chloropyridin-2-yl)hexanenitrile (49)],3800
20,N#Cc1cccc(C(C#N)c2ccc(Cl)cc2F)n1 (stereo not given) [6-((4-Chloro-2-fluorophenyl)(cyano)methyl) picolinonitrile (30)],110
